# Where two headings read alike, the source gives them in different places. Square brackets hold non-standard residues; d marks the D form. Peptide text beside a SMILES is read from it. * marks the point of attachment. X1 = CN1/C(=C/C=C/C=C/C2=[N+](CCCCCC(=O)*)c3ccc(S(=O)(=O)[O-])cc3C2(C)C)C(C)(C)c2cc(S(=O)(=O)O)ccc21; 1Nal = N[C@@H](Cc1cccc2ccccc12)C(=O)O; X2 = O=C(c1ccc2cc(F)ccc2c1)*; Octanoyl = CCCCCCCC(=O)*; Dap = NC[C@H](N)C(=O)O
# Columns and labels:
# hGOAT = target: T1, hGOAT (Homo sapiens, UniProt Q96T53); assay: hGOAT inhibition assay (octanoylation of GSSFLCAcDan by Sf9 membrane fraction expressing hGOAT, HPLC fluorescence); format: biochemical; conditions: read-out: IC50 against hGOAT
# T1 construct: 3xHA (C); FLAG (C); His6 (C); made in house; host or cells: Sf9 insect cells (baculovirus), crude membrane fraction
# T1 sequence (Q96T53 1-435): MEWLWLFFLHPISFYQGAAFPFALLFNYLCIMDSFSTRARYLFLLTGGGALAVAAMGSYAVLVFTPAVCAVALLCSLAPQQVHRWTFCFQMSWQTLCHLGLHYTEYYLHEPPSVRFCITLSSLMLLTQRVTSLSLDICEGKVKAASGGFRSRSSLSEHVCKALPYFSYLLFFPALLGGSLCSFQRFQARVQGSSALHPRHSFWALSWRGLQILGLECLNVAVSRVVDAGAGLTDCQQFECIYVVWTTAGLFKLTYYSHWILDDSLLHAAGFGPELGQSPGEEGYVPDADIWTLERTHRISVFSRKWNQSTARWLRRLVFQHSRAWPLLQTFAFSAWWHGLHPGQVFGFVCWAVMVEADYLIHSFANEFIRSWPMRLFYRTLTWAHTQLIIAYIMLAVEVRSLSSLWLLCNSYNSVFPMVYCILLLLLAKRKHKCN
# Method: Assays were performed using previously reported protocols,[57],[58] as described in the Supporting Information. […]
# hGOAT inhibition assays. Assays were performed using previously reported protocols.2-3 For each assay, membrane fraction from Sf9 cells expressing hGOAT was thawed on ice and homogenized by passage through an 18-gauge needle 10 times. Assays were performed with 50 µg of membrane protein, as determined by Bradford assay. Membrane fraction was pre-incubated with 1 µM methyl […]
# arachidonyl fluorophosphonate (MAFP) and unlabeled peptide inhibitor or vehicle as indicated in 50 mM HEPES pH 7.0 for 30 minutes at room temperature prior to reaction initiation.4 All reactions were initiated by the addition of 1.5 µM GSSFLCAcDan and 300 µM octanoyl CoA.
# Reactions were incubated for 30 minutes at room temperature under foil. All assays were stopped with the addition of 50 µL of 20% acetic acid in isopropanol, and solutions were clarified by protein precipitation with 16.7 µL of 20% trichloroacetic acid, followed by centrifugation (1,000 x g, 2 minutes). The supernatant was then analyzed using reverse-phase HPLC with fluorescence detection as previously described.2-3 Peak integrations for both substrate and product peaks were calculated using Chemstation for LC (Agilent Technologies). Data reported are the average of three independent determinations, with error reported as standard deviation.
# For determination of IC50 values, the percent activity at each inhibitor concentration was calculated from HPLC integration data using equations 1 and 2: To determine an IC50 value for a given inhibitor, the plot of % activity versus [inhibitor] was fit to equation 3, with % activity0 denoting hGOAT activity in the presence of the vehicle alone. All reported IC50 values represent the average of a minimum of three independent trials.
# (1) % activity = % peptide acylation in presence of inhibitor
# % peptide acylation in absence of inhibitor
# (2) % peptide octanoylation = Fluorescence of acylated peptide
# Total peptide fluorescence (acylated and non-acylated)
# (3) % activity = % activity * (1- [inhibitor] )
# GHSR (GHS-R1a) [1] = target: T2, GHSR (GHS-R1a) (Homo sapiens, UniProt Q92847); assay: biochemical; format: binding; conditions: for IC50: lower limit from test at 100 µM, read-out: IC50 against GHSR
# T2 construct: expressed in transfected cells; host or cells: HEK 293 cells transfected with GHS-R1a (membrane suspension)
# Method: Peptide binding affinity for the ghrelin receptor was determined using a competitive radioligand-displacement binding assay,[22] with details provided in the Supporting Information. […]
# GHSR receptor binding assays. Peptide binding affinity for the ghrelin receptor was determined using a competitive radioligand-displacement binding assay.1 Assays were performed using GHS-R1a transfected HEK 293 cells as the receptor source and human His[125I]-ghrelin(1−28) (PerkinElmer Inc. NEX388010UC ) as the radioligand. Human ghrelin(1−28) was used as a reference to ensure the validity of the results. A suspension of membrane from HEK 293/GHS-R1a cells (100,000 cells per assay tube) were incubated with ghrelin(1−8) peptide analogues (at […]
# ghrelin (15 pM per assay tube) in binding buffer (25 mM HEPES, 5 mM magnesium chloride, 1 mM calcium chloride, 2.5 mM EDTA, and 0.4% BSA, pH 7.4). The resulting suspension was incubated for 20 min under shaking (550 rpm) at 37 °C. Unbound [ 125I]-ghrelin was removed and the amount of [ 125I]-ghrelin bound to the membranes was measured by γ counter. IC 50 values were determined by nonlinear regression analysis to fit a four-parameter dose−response curve using Prism 6 (version 6.0c). All binding assays were performed in triplicate. […]
# GHSR (GHS-R1a) [2] = target: T2, GHSR (GHS-R1a); parameters: method as in Charron et al.[22]; conditions: ref Charron et al.[22]; read-out: IC50 against GHSR; cited from earlier work
# [3] = target: human ghrelin O-acyltransferase (hGOAT) of the hGOAT inhibition assays (human) (UniProt Q96T53)
# [4] = average of three independent trials ± one standard deviation
compound,measurement,setting,value
"CC(C)C[C@H](NC(=O)[C@H](Cc1ccccc1)NC(=O)[C@H](CN)NC(=O)[C@H](CO)NC(=O)C(C)(C)N)C(=O)N[C@@H](CO)C(=O)N1CCC[C@H]1C(=O)N[C@@H](Cc1ccc(O)cc1)C(N)=O [ligand 4, H-Aib-S-Dap-FLSPY-NH2] (HELM PEPTIDE1{[Aib].S.[NC[C@H](N[*:1])C(=O)[*:2]].F.L.S.P.Y.[am]}$$$$V2.0)",IC50,hGOAT,> 100000 nM
same,IC50,GHSR (GHS-R1a) [1],≥ 100000 nM
"CC(C)C[C@H](NC(=O)[C@H](Cc1cccc2ccccc12)NC(=O)[C@H](CN)NC(=O)[C@H](CO)NC(=O)CN)C(=O)N[C@@H](CO)C(=O)N1CCC[C@H]1C(=O)N[C@H](C(=O)N[C@@H](CCCCNC(=O)CCCCC[N+]1=C(/C=C/C=C/C=C2/N(C)c3ccc(S(=O)(=O)O)cc3C2(C)C)C(C)(C)c2cc(S(=O)(=O)[O-])ccc21)C(N)=O)[C@@H](C)O [ligand 15, H-GS-Dap-Nal-1-LSPTK(SulfoCy5)-NH2] (H-GS[Dap][1Nal]LSPTK(X1)-NH2)",IC50,hGOAT; [4],17 ± 2 nM
"CCCCCCCC(=O)NC[C@H](NC(=O)[C@H](CO)NC(=O)CN)C(=O)N[C@@H](Cc1ccccc1)C(=O)N[C@@H](CC(C)C)C(=O)N[C@@H](CO)C(=O)N1CCC[C@H]1C(=O)N[C@@H](CC(N)=O)C(N)=O [ligand 10, H-GS-(C8-Dap)-FLSPN-NH2] (H-GS[Dap](Octanoyl)FLSPN-NH2)",IC50,hGOAT; [4],59 ± 7 nM
same,IC50,GHSR (GHS-R1a) [2],31.9 nM
H-Aib-S-(6FN-Dap)-FLSPY-NH2 [ligand 6],IC50,GHSR (GHS-R1a) [2],9.2 nM
"CC(C)C[C@H](NC(=O)[C@H](Cc1ccc2ccccc2c1)NC(=O)[C@H](CN)NC(=O)[C@H](CO)NC(=O)CN)C(=O)N[C@@H](CO)C(=O)N1CCC[C@H]1C(=O)N[C@H](C(N)=O)[C@@H](C)O [ligand 13, H-GS-Dap-Nal-2-LSPT-NH2] (HELM PEPTIDE1{G.S.[NC[C@H](N[*:1])C(=O)[*:2]].[O=C([C@H](Cc1ccc2ccccc2c1)N[*:1])[*:2]].L.S.P.T.[am]}$$$$V2.0)",IC50,GHSR (GHS-R1a) [1],≥ 100000 nM
"CCCCCCCC(=O)NC[C@H](NC(=O)[C@H](CO)NC(=O)CN)C(=O)N[C@@H](Cc1ccccc1)C(=O)N[C@@H](CC(C)C)C(=O)N[C@@H](CO)C(=O)N1CCC[C@H]1C(=O)N[C@H](C(N)=O)[C@@H](C)O [ligand 11, H-GS-(C8-Dap)-FLSPT-NH2] (H-GS[Dap](Octanoyl)FLSPT-NH2)",IC50,hGOAT; [4],27 ± 8 nM
same,IC50,GHSR (GHS-R1a) [2],3.3 nM
H-Inp-S-(6FN-Dap)-FLSPY-NH2 [ligand 7],IC50,GHSR (GHS-R1a) [2],9.6 nM
"CCCCCCCC(=O)NC[C@H](NC(=O)[C@H](CO)NC(=O)CN)C(=O)N[C@@H](Cc1ccccc1)C(=O)N[C@@H](CC(C)C)C(=O)N[C@@H](CO)C(=O)N1CCC[C@H]1C(=O)N[C@@H](CCC(=O)O)C(N)=O [ligand 9, H-GS-(C8-Dap)-FLSPE-NH2]",IC50,hGOAT; [4],580 ± 60 nM
same,IC50,GHSR (GHS-R1a) [2],200 nM
"CC(C)C[C@H](NC(=O)[C@H](Cc1ccccc1)NC(=O)[C@H](CNC(=O)c1ccc2cc(F)ccc2c1)NC(=O)[C@H](CO)NC(=O)CN)C(=O)N[C@@H](CO)C(=O)N1CCC[C@H]1C(=O)N[C@@H](Cc1ccc(O)cc1)C(N)=O [ligand 3, H-GS-(6FN-Dap)-FLSPY-NH2] (H-GS[Dap](X2)FLSPY-NH2)",IC50,hGOAT,> 100000 nM
same,IC50,GHSR (GHS-R1a) [2],9.9 nM
same,selectivity for GHSR binding over GOAT,GHSR (GHS-R1a) [1]; from IC50 values of Table 1,> 100 fold
"ligand 3, H-GS-(6FN-Dap)-FLSPY-NH2 (peptide)",inhibition of hGOAT activity (IC50 against hGOAT),[3],> 100000 nM
